# Where a name gives a salt, the structure may show the parent alone.
# What was measured:
# [1] = Stability test in dog liver microsomes; assay type: in vitro ADME; details: pH 7.4; dog liver microsomes 0.5 mg/mL, test compound 2 μmol/L, 37° C., 0-30 min; read-out: Hepatic intrinsic clearance, Dog
# Protocol: (§1) Experiment was performed using the compound of Example 11, Comparative Example 1 or Comparative Example 6 as a test compound and human liver microsomes (from Xenotech), monkey liver microsomes (from Xenotech), dog liver microsomes (from Xenotech) or mouse liver microsomes (from Xenotech) as the liver microsomes.
# (§2) The reagents to be used in the stability test in liver microsomes were prepared as follows. A D-glucose 6-phosphate disodium salt (hereinafter referred to as G6P) was dissolved with distilled water to prepare an aqueous solution of G6P (100 mmol/L). Glucose 6-phosphate dehydrogenase (1000 units) from Yeast (hereinafter referred to as G6PDH) was dissolved with distilled water (5 mL) to prepare an aqueous solution of G6PDH (200 units/mL). MgCl2 was dissolved with distilled water to prepare an aqueous solution of MgCl2 (100 mmol/L). […]
# (§3) With respect to the chromatogram of each well obtained by LC/MS analysis or LC/MS/MS analysis, the test compound residual ratio (%) at each reaction time t (min) was calculated based on the peak area at the reaction time of 0 minute as 100%. […]
# [2] = Stability test in human liver microsomes; assay type: in vitro ADME; details: pH 7.4; human liver microsomes 0.5 mg/mL, test compound 2 μmol/L, 37° C., 0-30 min; read-out: Hepatic intrinsic clearance, Human
# Protocol: as §1, §2, §3
Structure (SMILES),microsomal CLint at 2 μmol/L [1] [µL/min/mg],microsomal CLint at 2 μmol/L [2] [µL/min/mg]
"CC(C)n1ccnc1CCC(=O)N1CCC(N(C)C)CC1 [Comparative Example 6, 1-(4-(dimethylamino)piperidin-1-yl)-3-(1-isopropyl-1H-imidazol-2-yl)propan-1-one hydrochloride]",6,–
"CN(C)C1CCN(C(=O)CCc2nccn2C)CC1 [Comparative Example 1, 1-(4-(dimethylamino)piperidin-1-yl)-3-(1-methyl-1H-imidazol-2-yl)propan-1-one hydrochloride]",–,1

# Reference: patent US10173999B2, “Cyclic amine derivative and pharmaceutical use thereof” (Toray Industries, Inc., priority 2015, dated 2019)
